Reference: the supplement of paper PMC10627819

Experiments:
S. pneumoniae D39V [1] = test: fitness (endpoint OD595 vs no drug) (fraction); higher = more growth
Method in brief: (§1)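 Background-subtracted growth curves were the basis for fitness, taken as the optical density at entry into stationary phase over the robust mean of no-drug control wells. A cap of 1 was applied. The curves came from OD595 readings every 30 min for 14 h at 37 °C, in 384-well plates seeded at OD595 0.01 with 30 µl, or 55 µl for S. pneumoniae.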

B. subtilis 168 [2] = test: as above
Method in brief: as §1

S. pneumoniae D39V [3] = test: Bliss interaction score (quartile over a dose matrix) (fitness difference); higher = more antagonism (negative = synergy)
Method in brief: (§2)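 Fitness is OD595 at stationary-phase entry relative to the plate's robust no-drug mean, capped at 1. Single-drug fitness was inferred from combinations. The Bliss score is observed minus product-expected fitness, summarised by quartiles over technical, biological and donor/recipient replicates.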

S. aureus Newman = test: as above
Method in brief: as §2

B. subtilis 168 [4] = test: as above
Method in brief: as §2

S. aureus DSM 20231 = test: as above
Method in brief: as §2
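Throughout, for Bliss interaction score (quartile over a dose matrix): first quartile when negative (synergy) and third quartile when positive (antagonism).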

CN(C)C(=O)C(CCN1CCC(O)(c2ccc(Cl)cc2)CC1)(c1ccccc1)c1ccccc1 [Loperamide] + CC1=C\[C@@H](O)CC(=O)Cc2nc(co2)C(=O)N2CCC=C2C(=O)O[C@H](C(C)C)[C@H](C)/C=C/C(=O)NC\C=C\1 [Virginiamycin M1]
Settings | fitness
B. subtilis 168 [2], first compound 25 µg/mL, partner 0.0625 µg/mL | 0.809
B. subtilis 168 [2], first compound 25 µg/mL, partner 0.125 µg/mL | 0.745
B. subtilis 168 [2], first compound 25 µg/mL, partner 0.25 µg/mL | 0.755
B. subtilis 168 [2], first compound 50 µg/mL, partner 0.0625 µg/mL | 0.0261
B. subtilis 168 [2], first compound 50 µg/mL, partner 0.125 µg/mL | 0.0336
B. subtilis 168 [2], first compound 50 µg/mL, partner 0.25 µg/mL | 0.0356
B. subtilis 168 [2], first compound 100 µg/mL, partner 0.0625 µg/mL | 0.0228
B. subtilis 168 [2], first compound 100 µg/mL, partner 0.125 µg/mL | 0.0378
B. subtilis 168 [2], first compound 100 µg/mL, partner 0.25 µg/mL | 0.0328
S. pneumoniae D39V [1], first compound 17.14 µg/mL, partner 0.5 µg/mL | ≥ 1
S. pneumoniae D39V [1], first compound 17.14 µg/mL, partner 1 µg/mL | ≥ 1
S. pneumoniae D39V [1], first compound 17.14 µg/mL, partner 2 µg/mL | ≥ 1
S. pneumoniae D39V [1], first compound 20 µg/mL, partner 2 µg/mL | ≥ 1
S. pneumoniae D39V [1], first compound 34.28 µg/mL, partner 0.5 µg/mL | ≥ 1
S. pneumoniae D39V [1], first compound 34.28 µg/mL, partner 1 µg/mL | ≥ 1
S. pneumoniae D39V [1], first compound 34.28 µg/mL, partner 2 µg/mL | ≥ 1
S. pneumoniae D39V [1], first compound 40 µg/mL, partner 2 µg/mL | ≥ 1

fitness, S. pneumoniae D39V [1], one replicate
Settings | partner 0.15 µg/mL | partner 0.3 µg/mL | partner 0.5 µg/mL | partner 1 µg/mL | partner 2 µg/mL
first compound 20 µg/mL | ≥ 1 | 0.999 | ≥ 1 | ≥ 1 | –
first compound 40 µg/mL | ≥ 1 | ≥ 1 | ≥ 1 | ≥ 1 | –
first compound 68.57 µg/mL | – | – | ≥ 1 | ≥ 1 | ≥ 1
first compound 80 µg/mL | ≥ 1 | ≥ 1 | 0.348 | 0.0702 | –

Settings | Bliss interaction score
B. subtilis 168 [4] | -0.0999
S. aureus DSM 20231 | -0.211
S. aureus Newman | 0.0415
S. pneumoniae D39V [3] | 0.0883

CN(C)C(=O)C(CCN1CCC(O)(c2ccc(Cl)cc2)CC1)(c1ccccc1)c1ccccc1 [Loperamide] + CCC(C)C1C(=O)NC(=C)C(=O)NC(C(=O)NC(CSCC(C(=O)N1)NC(=O)/C(=C/C)/NC(=O)C(C(C)CC)N)C(=O)NC2C(SCC(NC(=O)CNC(=O)C3CCCN3C2=O)C(=O)NC(CCCCN)C(=O)NC4C(SCC(NC(=O)CNC(=O)C(NC(=O)C(NC(=O)C(NC(=O)CNC4=O)C)CC(C)C)CCSC)C(=O)NC(CC(=O)N)C(=O)NC(CCSC)C(=O)NC(CCCCN)C(=O)NC5C(SCC6C(=O)NC(C(=O)NC(CSC(C(C(=O)N6)NC(=O)C(NC5=O)C)C)C(=O)NC(CO)C(=O)NC(C(C)CC)C(=O)NC(CC7=CN=CN7)C(=O)NC(C(C)C)C(=O)NC(=C)C(=O)NC(CCCCN)C(=O)O)CC8=CN=CN8)C)C)C)CC(C)C [Nisin]
S. pneumoniae D39V [1], main component drawn
Settings | fitness
first compound 17.14 µg/mL, partner 1.6 µg/mL | 0.0272
first compound 17.14 µg/mL, partner 3.2 µg/mL | 0.0109
first compound 17.14 µg/mL, partner 6.4 µg/mL | 0.0062
first compound 20 µg/mL, partner 0.4275 µg/mL | 0.827
first compound 20 µg/mL, partner 1.71 µg/mL | 0.063
first compound 34.28 µg/mL, partner 1.6 µg/mL | 0.0162
first compound 34.28 µg/mL, partner 3.2 µg/mL | 0
first compound 34.28 µg/mL, partner 6.4 µg/mL | 0.0091
first compound 40 µg/mL, partner 0.4275 µg/mL | 0.145
first compound 40 µg/mL, partner 0.855 µg/mL | 0.0969
first compound 40 µg/mL, partner 1.71 µg/mL | 0.0997
first compound 80 µg/mL, partner 0.4275 µg/mL | 0.0928
first compound 80 µg/mL, partner 0.855 µg/mL | 0.073
first compound 80 µg/mL, partner 1.71 µg/mL | 0.102

fitness, one replicate, main component drawn
Settings | first compound 25 µg/mL | first compound 50 µg/mL | first compound 68.57 µg/mL | first compound 100 µg/mL
B. subtilis 168 [2], partner 0.5 µg/mL | 0.435 | 0.0779 | – | 0.108
B. subtilis 168 [2], partner 1 µg/mL | 0.11 | 0.0703 | – | 0.0347
B. subtilis 168 [2], partner 1.25 µg/mL | 0.204 | 0.0476 | – | 0.0457
B. subtilis 168 [2], partner 1.6 µg/mL | 0.1 | 0.0166 | – | 0.0155
B. subtilis 168 [2], partner 2 µg/mL | 0.088 | 0.0708 | – | 0.0438
B. subtilis 168 [2], partner 2.5 µg/mL | 0.0567 | 0.0575 | – | 0.0577
B. subtilis 168 [2], partner 3.2 µg/mL | 0.0289 | 0.0291 | – | 0.0362
B. subtilis 168 [2], partner 4 µg/mL | 0.0315 | 0.0232 | – | 0.0127
B. subtilis 168 [2], partner 5 µg/mL | 0.0493 | 0.0332 | – | 0.0475
B. subtilis 168 [2], partner 6.4 µg/mL | 0.035 | 0.0454 | – | 0.077
B. subtilis 168 [2], partner 8 µg/mL | 0.0084 | 0.0257 | – | 0.0094
B. subtilis 168 [2], partner 16 µg/mL | 0.0263 | 0.037 | – | 0.0142
S. pneumoniae D39V [1], partner 1.6 µg/mL | – | – | 0.001 | –
S. pneumoniae D39V [1], partner 3.2 µg/mL | – | – | 0 | –
S. pneumoniae D39V [1], partner 6.4 µg/mL | – | – | 0 | –

main component drawn
Settings | Bliss interaction score
B. subtilis 168 [4] | -0.126
S. aureus DSM 20231 | -0.423
S. aureus Newman | -0.076
S. pneumoniae D39V [3] | -0.175
